Data taken from US20240299334A1, “PHARMACEUTICAL COMPOSITION OF NAPHTHALENE DERIVATIVES AS MULTI-TARGETED THERAPEUTIC AGENTS FOR THE TREATMENT OF ALZHEIMER'S DISEASE” (CENTRO DE NEUROCIENCIAS DE CUBA, CNEURO, priority 2020, published 2024).

What was measured:
AChE = target: T1, AChE (Mus musculus, UniProt P21836); experiment: AChE activity ex vivo in brain homogenates (Ellman), acute ESC model; design: species or system mice; conditions: soluble fraction of brain homogenates, vs ESC group, 3 p<0.05, donepezil p<0.01
T1 construct: the resulting clear supernatants were used as enzyme sources; from tissue; host or cells: mouse whole brain, supernatant of the homogenate (10,000 x G)
T1 sequence (P21836 32-614): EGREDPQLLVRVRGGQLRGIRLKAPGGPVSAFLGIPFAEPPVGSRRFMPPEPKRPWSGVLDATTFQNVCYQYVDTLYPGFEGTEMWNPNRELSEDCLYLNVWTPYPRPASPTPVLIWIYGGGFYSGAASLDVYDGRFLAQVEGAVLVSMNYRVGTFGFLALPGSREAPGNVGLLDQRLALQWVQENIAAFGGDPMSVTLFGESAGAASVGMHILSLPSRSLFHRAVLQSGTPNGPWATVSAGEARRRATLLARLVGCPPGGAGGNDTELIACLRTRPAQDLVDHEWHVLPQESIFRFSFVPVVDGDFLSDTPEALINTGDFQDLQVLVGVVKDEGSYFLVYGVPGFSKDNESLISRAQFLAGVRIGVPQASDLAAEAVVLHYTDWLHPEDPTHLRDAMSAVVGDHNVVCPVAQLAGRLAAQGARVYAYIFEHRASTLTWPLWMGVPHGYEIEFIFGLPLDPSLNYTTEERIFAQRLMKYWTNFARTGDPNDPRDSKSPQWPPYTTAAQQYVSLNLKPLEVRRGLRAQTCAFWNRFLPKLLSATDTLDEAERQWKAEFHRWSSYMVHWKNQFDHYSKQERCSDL
Method: Briefly the procedure was as follows; at the end of the behavioral experiments, the mice were anesthetized and decapitated to quickly remove the brains, which were placed on an ice-cold plate. They were weighed and homogenized (1/10, w/v) in cold 10 mmol/L Tris-HCl buffer, pH 7.2, containing 160 mmol/L sucrose. The homogenates were centrifuged at 10,000×G for 10 minutes at 4° C., and the resulting clear supernatants were used as enzyme sources, which were aliquoted (n=10 per group) and stored at −20° C. The assay was performed in 96-well microtiter plates using Ellman's reagent (DTNB 10 mmol/L), 50 μL homogenate and 10 μL Acetylcholine iodide (AChl, 20 mmol/L) (final volume 200 μL). The absorbance of the yellow hydrolyzate of the 5-thio-2-nitrobenzoic acid dianion (molar extinction coefficient: 13 700 mol/L^−1 cm^−1), was measured at 412 nm, for 20 minutes with an interval of 1 minute. AChE activity was performed in triplicate and was expressed in nmol of hydrolyzed Achl per minute per mg of protein.
All data are expressed as the mean±standard error of the mean (SEM). The comparison of the cholinesterase activity values was carried out by means of a one-way analysis of variance, followed by the Turkey post-hoc test. Statistical analysis was performed using GraphPadPrism version 5 (GraphPad Software, Inc., San Diego, USA).

[1] = system: memory loss induced with the chronic use of scopolamine; experiment: Morris water maze, chronic ESC model; type: in vivo, mice
Method: Male C57BL/6 mice (20-25 g), supplied by the National Center for the Laboratory Animals Production (CENPALAB, Cuba) were used. During the experiment, the animals received adlibitum water and standard diet supplied by CENPALAB. All procedures were carried out in accordance with the European Commission guidelines for the use and care of laboratory animals and approved by the Committee for the Research Animals Care. The minimum number of animals and duration of observations required to obtain consistent data was used.
At the end of the adaptation period, the animals were randomly distributed according to their body weights in five experimental groups of 12 animals each. For the induction of cognitive deficit, ESC (Sigma Aldrich) was used, which was dissolved in physiological saline and administered daily intraperitoneally (ip) at a dose of 1.5 mg/kg for 2 weeks, in the morning (Park J H, et al. In J Mol Neurosci. 2016; 59 (4): 579-589). Compound 3 was prepared as a suspension, in 0.5% soluble starch (Merck Millipore), and administered orally by intragastric cannula at a daily dose of 0.1, 1, 10 mg/kg of body weight […]. The experimental groups were: […]
Morris Water Maze (MWM): Analogous to Example 2, the two-day MWM test was used to determine long-term spatial memory. […] In this way, long-term spatial memory was determined by the quotient of the escape latency values D2T1/D1V6. […]

[2] = system: seizures induced by icv administration of kainic acid; experiment: Seizures induced by icv administration of kainic acid (Racine scale); type: in vivo, mice; conditions: compound 3 5 and 50 mg/kg oral, 1 h before KA icv; effect greater with 50 mg/kg
Method: Young male OF-1 mice (20-25 g), supplied by the National Center for the Laboratory Animals Production (CENPALAB, Cuba) were used. The conditions of adaptation and maintenance of the animals before carrying out the experiment were similar to those developed in non-limiting Example 2. The mice were divided into 5 experimental groups (7 animals group) distributed in: a control group (PBS 2 μL, icv), a seizure control group (KA 2 μL, icv) and three groups treated orally by gastric cannulation with compound 3 at doses of 1, 5, 50 mg/kg […] and KA 2 μL, icv. Compound 3 was prepared as a suspension in 5% carboxymethylcellulose (CMC) vehicle. […]
For the icv administration of KA the mice were anesthetized with 685.71 mg/kg with chloral hydrate i.p. and placed on a dual manipulator. […] Stereotaxic coordinates for the lateral ventricle were precisely measured as: anteroposterior […], lateral±[…] and dorsoventral […] relative to bregma and ventral dura with the tooth bar at […]. A burr hole was made in the skull by automatic microperforation attached to an arm of the stereotaxic apparatus. […]
Statistical Analysis All data are expressed as the mean±standard error of the mean (SEM), and were analyzed using a one-way analysis of variance followed by Turkey's post-hoc test. […]

CSC(=S)NCCNC(=O)CCC(=O)Nc1cccc2ccccc12 [compound 3, methyl(2-{[4-(1-naphthylamino)-4-oxobutanoyl]amino}ethyl)dithiocarbamate]
AChE activity ex vivo (AChE): significantly reduced | maximum effect dose ([1]; MWM, chronic ESC model): 1 mg/kg | ratio of first escape latency with hidden platform (T7) and last test with visible platform (T6) ([1]; compound 3 1 and 10 mg/kg oral daily, ESC 1.5 mg/kg daily, 2 weeks): significantly decreased compared to the ESC group | total seizure score (0-120 minutes) [2]: significant decrease in the total score
